Experimental data reported in publication PMC12298351, “Novel 3,19-(N-Phenyl-3-(4-fluorophenyl)-pyrazole) Acetal of Andrographolide Promotes Cell Cycle Arrest and Apoptosis in MDA-MB-231 Breast Cancer Cells” (Pharmaceuticals, 2025).

Columns and labels:
PC-3 = conditions: PC-3, Prostate
HCT-15 = conditions: HCT-15, Colon
RPMI-8226 = conditions: RPMI-8226, Leukemia
COLO 205 = conditions: COLO 205, Colon
A498 = conditions: A498, Renal
786-0 = conditions: 786-0, Renal
UACC-62 = conditions: UACC-62, Melanoma
MDA-MB-435 = conditions: MDA-MB-435, Melanoma
TK-10 = type: cell-based; conditions: TK-10, Renal
SNB-75 = conditions: SNB-75, CNS
SF-295 = conditions: SF-295, CNS
K-562 = conditions: K-562, Leukemia
OVCAR-8 = conditions: OVCAR-8, Ovarian
SNB-19 = type: cell-based; conditions: SNB-19, CNS
HCT-116 = type: cell-based; conditions: HCT-116, Colon
SF-539 = conditions: SF-539, CNS
OVCAR-3 = conditions: OVCAR-3, Ovarian
OVCAR-4 = type: cell-based; conditions: OVCAR-4, Ovarian
SK-OV-3 = conditions: SK-OV-3, Ovarian
RXF 393 = conditions: RXF 393, Renal
UO-31 = conditions: UO-31, Renal
UACC-257 = conditions: UACC-257, Melanoma
[1] = read-out: 50% lethal concentration (LC50)

Compound: C=C1CCC2C3(C)COC(c4cn(-c5ccccc5)nc4-c4ccc(OC)cc4)OC3CCC2(C)C1CC=C1C(=O)OCC1O (stereo not shown) [1j]
- GI50 (PC-3): 2.18 µM
- CC50 (PC-3; [1]): > 100 µM
- GI50 (HCT-15): 1.58 µM
- Total growth inhibition (TGI) (HCT-15): 3.37 µM
- CC50 (HCT-15; [1]): 7.2 µM
- GI50 (RPMI-8226): 0.92 µM
- Total growth inhibition (TGI) (RPMI-8226): > 100 µM
- CC50 (RPMI-8226; [1]): > 100 µM
- GI50 (COLO 205): 1.95 µM
- Total growth inhibition (TGI) (COLO 205): 4.24 µM
- GI50 (A498): 2.63 µM
- Total growth inhibition (TGI) (A498): 11.3 µM
- CC50 (A498; [1]): 39.2 µM
- GI50 (786-0): 2.3 µM
- Total growth inhibition (TGI) (786-0): 5.59 µM
- CC50 (786-0; [1]): > 100 µM
- Total growth inhibition (TGI) (EKVX; Non-Small Cell Lung): 4.49 µM
- GI50 (EKVX; Non-Small-Cell Lung): 1.96 µM
- CC50 (EKVX; read-out: 50% lethal concentration (LC50), Non-Small Cell Lung): > 100 µM
- GI50 (CCRF-CEM; Leukemia): 0.64 µM
- Total growth inhibition (TGI) (CCRF-CEM; Leukemia): > 100 µM
- CC50 (CCRF-CEM; read-out: 50% lethal concentration (LC50), Leukemia): > 100 µM
- GI50 (UACC-62): 1.91 µM
- Total growth inhibition (TGI) (UACC-62): 4.26 µM
- CC50 (UACC-62; [1]): 9.48 µM
- GI50 (MDA-MB-435): 1.54 µM
- Total growth inhibition (TGI) (MDA-MB-435): 3.17 µM
- CC50 (MDA-MB-435; [1]): 6.51 µM
- GI50 (TK-10): 1.95 µM
- Total growth inhibition (TGI) (TK-10): 4.13 µM
- CC50 (TK-10; [1]): 8.77 µM
- GI50 (SNB-75): 1.15 µM
- Total growth inhibition (TGI) (SNB-75): 5.09 µM
- CC50 (SNB-75; [1]): 24.4 µM
- GI50 (SF-295): 1.43 µM
- Total growth inhibition (TGI) (SF-295): 2.78 µM
- CC50 (SF-295; [1]): 5.39 µM
- GI50 (K-562): 1.9 µM
- CC50 (K-562; [1]): > 100 µM
- GI50 (OVCAR-8): 1.35 µM
- Total growth inhibition (TGI) (OVCAR-8): 2.84 µM
- CC50 (OVCAR-8; [1]): 5.97 µM
- Total growth inhibition (TGI) (NCI-H460; NCI-H460, Non-Small Cell Lung): 3.5 µM
- GI50 (NCI-H460; NCI-H460, Non-Small-Cell Lung): 1.74 µM
- CC50 (NCI-H460; read-out: 50% lethal concentration (LC50), NCI-H460, Non-Small Cell Lung): 7.01 µM
- GI50 (NCI/ADR-RES; Ovarian): 1.94 µM
- Total growth inhibition (TGI) (NCI/ADR-RES; Ovarian): 4.41 µM
- CC50 (NCI/ADR-RES; read-out: 50% lethal concentration (LC50), Ovarian): > 100 µM
- GI50 (SNB-19): 2.46 µM
- Total growth inhibition (TGI) (SNB-19): 7.42 µM
- CC50 (SNB-19; [1]): 34.6 µM
- GI50 (HCT-116): 1.4 µM
- Total growth inhibition (TGI) (HCT-116): 3.11 µM
- GI50 (SF-539): 1.69 µM
- Total growth inhibition (TGI) (SF-539): 3.1 µM
- CC50 (SF-539; [1]): 5.7 µM
- GI50 (HS 578T; Breast): 1.86 µM
- Total growth inhibition (TGI) (HS 578T; Breast): 4.88 µM
- CC50 (HS 578T; read-out: 50% lethal concentration (LC50), Breast): > 100 µM
- GI50 (OVCAR-3): 1.5 µM
- Total growth inhibition (TGI) (OVCAR-3): 2.96 µM
- CC50 (OVCAR-3; [1]): 5.84 µM
- GI50 (OVCAR-4): 1.72 µM
- Total growth inhibition (TGI) (OVCAR-4): 4.23 µM
- CC50 (OVCAR-4; [1]): > 100 µM
- GI50 (SK-OV-3): 3.44 µM
- Total growth inhibition (TGI) (SK-OV-3): 23.9 µM
- CC50 (SK-OV-3; [1]): > 100 µM
- Total growth inhibition (TGI) (NCI-H226; NCI-H226, Non-Small Cell Lung): 3.36 µM
- GI50 (NCI-H226; NCI-H226, Non-Small-Cell Lung): 1.72 µM
- CC50 (NCI-H226; read-out: 50% lethal concentration (LC50), NCI-H226, Non-Small Cell Lung): 6.55 µM
- GI50 (RXF 393): 0.89 µM
- Total growth inhibition (TGI) (RXF 393): 2.2 µM
- CC50 (RXF 393; [1]): 4.98 µM
- Total growth inhibition (TGI) (HOP-92; HOP-92, Non-Small Cell Lung): 3.02 µM
- GI50 (HOP-92; HOP-92, Non-Small-Cell Lung): 1.47 µM
- CC50 (HOP-92; read-out: 50% lethal concentration (LC50), HOP-92, Non-Small Cell Lung): 6.2 µM
- GI50 (UO-31): 1.22 µM
- Total growth inhibition (TGI) (UO-31): 2.54 µM
- CC50 (UO-31; [1]): 5.25 µM
- GI50 (SN12C; Renal): 1.98 µM
- Total growth inhibition (TGI) (SN12C; Renal): 5.94 µM
- CC50 (SN12C; read-out: 50% lethal concentration (LC50), Renal): 65.1 µM
- GI50 (UACC-257): 1.64 µM
- Total growth inhibition (TGI) (UACC-257): 3.28 µM
- Total growth inhibition (TGI) (NCI-H522; NCI-H522, Non-Small Cell Lung): 3.24 µM
- GI50 (NCI-H522; NCI-H522, Non-Small-Cell Lung): 1.73 µM
- CC50 (NCI-H522; read-out: 50% lethal concentration (LC50), NCI-H522, Non-Small Cell Lung): 6.06 µM
